“And” between values parts separate entries of the source, which are not always exact repeats. Identical values can stand only once. Inconclusive results and toxic doses are left out. No stated cut-off is given here; in the data, active means T/C of 150% or more; inactive means T/C below 125%.
Test system: L1210 leukemia ip in BDF1 mice, survival T/C
Assay: NCI In Vivo Anticancer Drug Screen. Data for tumor model L1210 Leukemia (intraperitoneal) in B6D2F1 (BDF1) mice
Conditions: endpoint: mean survival time, higher = longer survival
How it was run: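 Transplanted-tumor mice were given test agent; controls received vehicle only. Survival readings from the two groups were divided (treated over control).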

[1] = dose: 25.0 mg/kg/injection, schedule: Q01DX009 (ip), vehicle: saline
[2] = dose: 50.0 mg/kg/injection, schedule: Q01DX009 (ip), vehicle: saline
[3] = dose: 100.0 mg/kg/injection, schedule: Q04DX003 (ip), vehicle: Klucel (hydroxypropylcellulose) (HPC)
[4] = dose: 200.0 mg/kg/injection, schedule: Q04DX003 (ip), vehicle: Klucel (hydroxypropylcellulose) (HPC)
[5] = dose: 400.0 mg/kg/injection, schedule: Q04DX003 (ip), vehicle: Klucel (hydroxypropylcellulose) (HPC)
[6] = dose: 100.0 mg/kg/injection, schedule: Q01DX001 (ip), vehicle: saline
[7] = dose: 100.0 mg/kg/injection, schedule: Q01DX009 (ip), vehicle: saline
[8] = dose: 200.0 mg/kg/injection, schedule: Q01DX001 (ip), vehicle: saline
[9] = dose: 400.0 mg/kg/injection, schedule: Q01DX001 (ip), vehicle: saline
[10] = dose: 100.0 mg/kg/injection, schedule: Q01DX009 (ip), vehicle: Klucel (hydroxypropylcellulose) (HPC)
[11] = dose: 200.0 mg/kg/injection, schedule: Q01DX009 (ip), vehicle: Klucel (hydroxypropylcellulose) (HPC)
[12] = dose: 400.0 mg/kg/injection, schedule: Q01DX009 (ip), vehicle: Klucel (hydroxypropylcellulose) (HPC)
[13] = dose: 100.0 mg/kg/injection, schedule: Q04DX003 (ip), vehicle: saline
[14] = dose: 100.0 mg/kg/injection, schedule: Q04DX003 (ip), vehicle: acetone
[15] = dose: 50.0 mg/kg/injection, schedule: Q01DX009 (ip), vehicle: saline with Tween-80
[16] = dose: 100.0 mg/kg/injection, schedule: Q01DX009 (ip), vehicle: saline with Tween-80
[17] = dose: 200.0 mg/kg/injection, schedule: Q01DX009 (ip), vehicle: saline with Tween-80

Measured: T/C

CN1C(=O)CC2(CCN(CCCC(=O)c3ccc(F)cc3)CC2)C1=O
inactive: dose: 3.12 mg/kg/injection, schedule: Q01DX009 (ip), vehicle: saline 103 % of control and 108 % of control | dose: 6.25 mg/kg/injection, schedule: Q01DX009 (ip), vehicle: Klucel (hydroxypropylcellulose) (HPC) 100 % of control | dose: 6.25 mg/kg/injection, schedule: Q01DX009 (ip), vehicle: saline 100 % of control and 101 % of control and 108 % of control | dose: 12.5 mg/kg/injection, schedule: Q01DX009 (ip), vehicle: Klucel (hydroxypropylcellulose) (HPC) 95 % of control | dose: 12.5 mg/kg/injection, schedule: Q01DX009 (ip), vehicle: saline 106 % of control and 112 % of control and 115 % of control | dose: 25.0 mg/kg/injection, schedule: Q01DX009 (ip), vehicle: Klucel (hydroxypropylcellulose) (HPC) 101 % of control | [1] 110 % of control | dose: 25.0 mg/kg/injection, schedule: Q04DX003 (ip), vehicle: alcohol 108 % of control | dose: 50.0 mg/kg/injection, schedule: Q01DX009 (ip), vehicle: Klucel (hydroxypropylcellulose) (HPC) 110 % of control | [2] 120 % of control and 124 % of control | dose: 50.0 mg/kg/injection, schedule: Q04DX003 (ip), vehicle: alcohol 106 % of control | dose: 100.0 mg/kg/injection, schedule: Q04DX003 (ip), vehicle: alcohol 106 % of control

CN(C)N=Nc1ccc(C(=O)N/N=C/c2ccc(Br)cc2)cc1
inactive: [3] 94 % of control | [4] 104 % of control | [5] 95 % of control

Clc1cnc[nH]1
inactive: [1] 105 % of control | [2] 108 % of control | [6] 102 % of control | [7] 105 % of control | [8] 110 % of control | [9] 102 % of control

O=C(NCCO)Nc1ccc(Cl)c(Cl)c1
inactive: [10] 100 % of control | [11] 103 % of control | [4] 101 % of control | [12] 101 % of control | [5] 87 % of control

COc1cccc2c1C(=O)c1c(OC)c(CO)cc(OC)c1C2=O
inactive: dose: 12.5 mg/kg/injection, schedule: Q01DX009 (ip), vehicle: water 93 % of control | dose: 25.0 mg/kg/injection, schedule: Q01DX009 (ip), vehicle: water 91 % of control | dose: 50.0 mg/kg/injection, schedule: Q01DX009 (ip), vehicle: water 87 % of control | dose: 100.0 mg/kg/injection, schedule: Q01DX009 (ip), vehicle: water 97 % of control | dose: 200.0 mg/kg/injection, schedule: Q01DX009 (ip), vehicle: water 95 % of control

O=c1[nH]c(SCc2ccccc2[N+](=O)[O-])nc2nc[nH]c12
inactive: [10] 90 % of control | dose: 100.0 mg/kg/injection, schedule: Q04DX002 (ip), vehicle: Klucel (hydroxypropylcellulose) (HPC) 98 % of control | dose: 100.0 mg/kg/injection, schedule: Q04DX002 (ip), vehicle: saline 94 % of control | [11] 90 % of control | dose: 200.0 mg/kg/injection, schedule: Q04DX002 (ip), vehicle: Klucel (hydroxypropylcellulose) (HPC) 94 % of control | dose: 200.0 mg/kg/injection, schedule: Q04DX002 (ip), vehicle: saline 97 % of control | [12] 93 % of control | dose: 400.0 mg/kg/injection, schedule: Q04DX002 (ip), vehicle: Klucel (hydroxypropylcellulose) (HPC) 97 % of control | dose: 400.0 mg/kg/injection, schedule: Q04DX002 (ip), vehicle: saline 97 % of control

Cn1cc(Cl)nc1CO
inactive: dose: 100.0 mg/kg/injection, schedule: Q01DX009 (ip), vehicle: saline sonified 91 % of control | [13] 91 % of control | dose: 200.0 mg/kg/injection, schedule: Q01DX009 (ip), vehicle: saline sonified 102 % of control | dose: 200.0 mg/kg/injection, schedule: Q04DX003 (ip), vehicle: saline 107 % of control | dose: 400.0 mg/kg/injection, schedule: Q01DX009 (ip), vehicle: saline sonified 93 % of control | dose: 400.0 mg/kg/injection, schedule: Q04DX003 (ip), vehicle: saline 102 % of control

c1cnc2c(c1)Oc1cccnc1N2
inactive: dose: 50.0 mg/kg/injection, schedule: Q01DX001 (ip), vehicle: Klucel (hydroxypropylcellulose) (HPC) 98 % of control | dose: 100.0 mg/kg/injection, schedule: Q01DX001 (ip), vehicle: Klucel (hydroxypropylcellulose) (HPC) 92 % of control | dose: 200.0 mg/kg/injection, schedule: Q01DX001 (ip), vehicle: Klucel (hydroxypropylcellulose) (HPC) 90 % of control

CN(C)CCCNC1=C(Cl)C(=O)C(NCCCN(C)C)=C(Cl)C1=O
inactive: [14] 89 % of control

C[N+]1=C2CCCCC2=C(N)CC1
inactive: dose: 6.25 mg/kg/injection, schedule: Q01DX009 (ip), vehicle: saline sonified 106 % of control | dose: 12.5 mg/kg/injection, schedule: Q01DX009 (ip), vehicle: saline sonified 92 % of control | dose: 25.0 mg/kg/injection, schedule: Q01DX009 (ip), vehicle: saline sonified 92 % of control

COc1ccc(/C(=C(/CC(=O)O)C(=O)OC(C)(C)C)c2cc(OC)c(OC)c(OC)c2)cc1OC
inactive: dose: 100.0 mg/kg/injection, schedule: Q01DX001 (ip), vehicle: carboxymethylcellulose (CMC) 96 % of control | dose: 200.0 mg/kg/injection, schedule: Q01DX001 (ip), vehicle: carboxymethylcellulose (CMC) 102 % of control | dose: 400.0 mg/kg/injection, schedule: Q01DX001 (ip), vehicle: carboxymethylcellulose (CMC) 97 % of control

O=C(Nc1ccc(C2=NCCN2)cc1)N1CCN(C(=O)Nc2ccc(C3=NCCN3)cc2)CC1
inactive: dose: 250.0 mg/kg/injection, schedule: Q01DX Z (ip), vehicle: water 87 % of control

CCCCCCCCCCCCN=Cc1cc(Cl)ccc1O
inactive: dose: 222.0 mg/kg/injection, schedule: Q01DX Z (ip), vehicle: methylcellulose (MC) 95 % of control | dose: 333.0 mg/kg/injection, schedule: Q01DX Z (ip), vehicle: methylcellulose (MC) 102 % of control | dose: 500.0 mg/kg/injection, schedule: Q01DX Z (ip), vehicle: methylcellulose (MC) 102 % of control

Clc1ccccc1Nc1nnnc2ccccc12
inactive: [2] 91 % of control | [7] 95 % of control | [14] 96 % of control | dose: 200.0 mg/kg/injection, schedule: Q01DX009 (ip), vehicle: saline 90 % of control | dose: 200.0 mg/kg/injection, schedule: Q04DX003 (ip), vehicle: acetone 100 % of control | dose: 400.0 mg/kg/injection, schedule: Q04DX003 (ip), vehicle: acetone 98 % of control

Nc1nc2[nH]cnc(=S)c2[nH]1
inactive: dose: 75.0 mg/kg/injection, schedule: Q01DX001 (ip), vehicle: saline 101 % of control

Clc1nc(Cl)c2c(ncn2Cc2ccccc2)n1
inactive: dose: 100.0 mg/kg/injection, schedule: Q01DX001 (ip), vehicle: other 95 % of control | dose: 200.0 mg/kg/injection, schedule: Q01DX001 (ip), vehicle: other 104 % of control

C(#[C][Sn]([C]#Cc1ccccc1)([C]#Cc1ccccc1)[C]#Cc1ccccc1)c1ccccc1
inactive: [15] 92 % of control | [16] 103 % of control | [17] 95 % of control

[Co+2].[NH-]c1ccccc1C(=O)O.[NH-]c1ccccc1C(=O)O
inactive: [16] 94 % of control | [17] 93 % of control | dose: 400.0 mg/kg/injection, schedule: Q01DX009 (ip), vehicle: saline with Tween-80 86 % of control

CC(C)(C)C(=O)/C=C(\C=S(C)(C)=O)c1ccccc1
inactive: dose: 25.0 mg/kg/injection, schedule: Q04DX003 (ip), vehicle: saline 105 % of control | dose: 50.0 mg/kg/injection, schedule: Q04DX003 (ip), vehicle: saline 97 % of control | [13] 100 % of control

CCOC(=O)c1cc2c(-c3ccccc3)c(-c3ccccc3)c(-c3ccccc3)c(-c3ccccc3)n2n1
inactive: [6] 93 % of control | [9] 93 % of control

CCN(c1ccccc1)C1CCCCC1=O (stereo not given)
inactive: [6] 101 % of control | [8] 106 % of control | [9] 104 % of control

NC(=O)N1CCN(c2ccccc2)CC1
inactive: [3] 95 % of control | [4] 97 % of control | [5] 101 % of control

CNCCOc1ccccc1
inactive: [15] 105 % of control | [16] 101 % of control | dose: 100.0 mg/kg/injection, schedule: Q04DX003 (ip), vehicle: saline with Tween-80 107 % of control | dose: 200.0 mg/kg/injection, schedule: Q04DX003 (ip), vehicle: saline with Tween-80 93 % of control

From PubChem BioAssay AID248 (DTP/NCI, 2004)
